Assay results as given in US20240124439A1, “Pyrido[2,3-D]Imidazole Derivatives and Their Use As Inhibitors of ITK for the Treatment of Skin Disease” (Pfizer Inc., priority 2020, published 2024).

How the values were obtained:
[1] = biological target: IL-2-Inducible T-Cell Kinase (ITK) (Homo sapiens (Human), UniProt Q08881); assay: ITK enzyme assay (IL-2-inducible T-cell kinase activity); type: biochemical; settings: geometric mean of count n
Description: ITK activity was determined by measuring the effect of a test compound in an ITK enzyme assay.
1.0 M HEPES Buffer pH 7.5 solution was prepared as follows: 238.3 g HEPES free acid (Sigma) and 800 mL of water were combined, and the mixture was stirred until complete dissolution. The pH was adjusted to 7.5 via titration with 5N NaOH and the volume adjusted to 1000 mL. The solution was filtered and sterilized.
ITK assay buffer was prepared as follows: 50 mL of HPLC-grade water was treated with 2 mL of 1.0 M HEPES Buffer, 500 μL of 2% Gelatin (Sigma), 1.0 mL of aqueous MgCl2 solution (1.0 M), and 1.0 mL of aqueous glutathione solution (0.5 M), and the solution was mixed. The solution was brought to 99 mL in a graduated cylinder by addition of water and sterilized through a 0.2 μm filter. 0.1 mL of Brij-35™ Surfact-Amps™ Detergent Solution (10% w/v aqueous solution, ThermoFisher) and 1.0 mL of ATP (Teknova,100 mM) were added and the solution was mixed.
Preparation of 1.33× ITK enzyme solution was as follows: 49.99 mL of ITK assay buffer was treated with 4.1 μL of ITK enzyme (ITK FL (N-Flag and C-His tagged, […]) Lake Pharma, 0.25 mg/ml in a buffer containing 25 mM Tris pH 7.8, 150 mM NaCl, 10% glycerol and 2 mM TCEP) and the mixture was gently agitated. The resulting solution was stored on ice. 30 Minutes prior to use, the enzyme solution was removed from ice and equilibrated to RT by incubation in a RT water bath.
Preparation of 4× ITK substrate solution was as follows: 50 mL of ITK assay buffer was treated with 100 μL of BTK peptide (China Peptide Company, 2 mM stock solution in DMSO). The tube was capped, mixed by gently inverting the tube, and then stored on ice. 30 Minutes prior to use, the substrate solution was removed from ice and equilibrated to RT by incubation in a RT water bath.
At the time of assay, 7.5 μL of the 1.33× ITK enzyme solution was added to plate wells containing 0.1 μL of varying concentrations of test compound in DMSO. The plate was incubated 30 min at RT. The plate wells were each treated with 2.5 uL of the 4× ITK substrate solution and the plate was sealed (TopSeal™, Perkin Elmer). The plate was spun at 1000 rpm for 30 sec and then incubated for 60 min at RT. The seal was removed, and each well was treated with 10 μL of Stop/Detect Buffer (20 mM HEPES pH 7.5, 0.01% gelatin, 1 nM LANCE PT66 (Perkin Elmer), 16.5 μg/ml Surelight APC (Perkin Elmer), 10 mM EDTA, 250 mM NaCl). The plate was again covered and was spun at 1000 rpm for […]. The plate was allowed to incubate overnight at RT and in a closed carrier to reduce dehydration. The seal was removed, and the fluorescence was read with a plate reader with an excitation wavelength of […]. The concentrations and resulting effect values for the tested compound were plotted and the concentration of compound required for 50% effect (IC50) was determined with the four-parameter logistic dose response equation.

[2] = tested on: activated CD4+ human T-cells (IL-2); assay: IL-2 inhibition in supernatants from activated CD4+ human T-cells (cisbio HTRF); type: cell-based; settings: T-cell; CD3/CD28-activated CD4+ human T cells, ImmunoCult stimulation 20 to 24 hrs; geometric mean of count n
Description: IL-2 inhibition activity in supernatants from activated CD4+ human T-cells was determined by measuring the effect of a test compound on the activity using the cisbio HTRF™ technology.
Human CD4+ T cells were activated with CD3/CD28 for 3 days and expanded for an additional 4-6 days (7 to 9 days total). On day 0, frozen CD4+ T cells were thawed, treated with CD3/CD28 Dynabeads, and incubated at 37° C./5% CO2. On day 3, the beads were removed, and the cells were diluted to 5×10^5 cells/cm^2, placed in G-Rex10 flask, and incubated at 37° C./5% CO2. On day 7 to day 9 the cells were removed from the G-Rex flasks, counted and diluted back to 1×10^6 cells/ml in standard tissue culture flask.
The expanded CD4+ T-cells were centrifuged at 300×g for 10 minutes and resuspended to 0.5 million cells per ml (30,000 cells/well). 60 μl of CD4+ T cells were added per well to a 384 well plate containing 0.1 μL of varying concentrations of test compound in DMSO. The plates were incubated for 15 min at 37° C./5% CO2. 20 μl of diluted ImmunoCult™ (STEMCELL Technologies, 1:12.5 in T cell assay media) were added to all wells of the plate (1:50 final assay concentration). The plates were incubated for an additional 20 to 24 hrs at 37° C./5% CO2. The plates were centrifuged at 300×g for 10 minutes. 16 μL of supernatant was removed and combined with 4 μl of IL-2 HTRF Abs. (cisbio kit). Plates were incubated for 3 hours at RT and read with an EnVision plate reader at 665 nm and 615 nm wavelengths. The concentrations and resulting effect values for the tested compound were plotted and the concentration of compound required for 50% effect (IC50) was determined with the four-parameter logistic dose response equation.

IL-2-Inducible T-Cell Kinase (ITK), sequence (Q08881 whole entry): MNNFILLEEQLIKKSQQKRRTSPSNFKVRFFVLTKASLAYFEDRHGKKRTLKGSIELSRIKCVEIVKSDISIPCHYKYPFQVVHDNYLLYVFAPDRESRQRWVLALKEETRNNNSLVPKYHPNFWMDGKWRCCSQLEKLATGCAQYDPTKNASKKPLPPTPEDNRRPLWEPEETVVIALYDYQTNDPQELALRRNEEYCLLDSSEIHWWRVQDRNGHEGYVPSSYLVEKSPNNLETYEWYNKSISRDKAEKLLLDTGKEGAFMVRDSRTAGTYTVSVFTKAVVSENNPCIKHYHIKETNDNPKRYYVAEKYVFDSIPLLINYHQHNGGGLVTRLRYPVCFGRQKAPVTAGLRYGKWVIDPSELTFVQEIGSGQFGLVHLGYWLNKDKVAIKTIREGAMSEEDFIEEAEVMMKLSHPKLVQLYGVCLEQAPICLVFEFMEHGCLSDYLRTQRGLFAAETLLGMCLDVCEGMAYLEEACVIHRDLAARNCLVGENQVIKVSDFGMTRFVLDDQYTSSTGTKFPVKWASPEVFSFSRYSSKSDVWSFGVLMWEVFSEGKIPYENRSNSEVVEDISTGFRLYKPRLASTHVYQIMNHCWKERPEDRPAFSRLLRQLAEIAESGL

Row | Compound | IC50 [1] [nM] | IC50 [2] [nM]
1 | CN(C(=O)[C@H](F)C1CCOCC1)c1cnc2nc(-c3n[nH]c4c3C[C@@H]3C[C@]3(C)C4)[nH]c2c1 [Example 12, (R)-2-Fluoro-N-methyl-N-(2-((4aS,5aR)-5a-methyl-1,4,4a,5,5a,6-hexahydrocyclopropa[f]indazol-3-yl)-1H-imidazo[4,5-b]pyridin-6-yl)-2-(tetrahydro-2H-pyran-4-yl)acetamide] | 76 | 447
2 | CC(=O)N(C)c1cnc2[nH]c(-c3n[nH]c4c3CCC(C)(C)C4)nc2c1 [Example 20, N-(2-(6,6-Dimethyl-4,5,6,7-tetrahydro-1H-indazol-3-yl)-3H-imidazo[4,5-b]pyridin-6-yl)-N-methylacetamide] | 231 | 1200
3 | CN(C(=O)C1(C)CCOCC1)c1cnc2nc(-c3n[nH]c4c3C[C@@H]3C[C@]3(C)C4)[nH]c2c1 [Example 70, N,4-Dimethyl-N-(2-((4aS,5aR)-5a-methyl-1,4,4a,5,5a,6-hexahydrocyclopropa[f]indazol-3-yl)-1H-imidazo[4,5-b]pyridin-6-yl)tetrahydro-2H-pyran-4-carboxamide] | 93 | 462
4 | CN(C(=O)C12CC(C1)C2)c1cnc2[nH]c(-c3n[nH]c4c3CCC(C)(C)C4)nc2c1 [Example 111, N-(2-(6,6-Dimethyl-4,5,6,7-tetrahydro-1H-indazol-3-yl)-3H-imidazo[4,5-b]pyridin-6-yl)-N-methylbicyclo[1.1.1]pentane-1-carboxamide] | 416 | –
5 | CC(=O)N(CC(=O)N(C)c1cnc2nc(-c3n[nH]c4c3C[C@@H]3C[C@]3(C)C4)[nH]c2c1)C(C)C [Example 75, 2-(N-Isopropylacetamido)-N-methyl-N-(2-((4aS,5aR)-5a-methyl-1,4,4a,5,5a,6-hexahydrocyclopropa[f]indazol-3-yl)-1H-imidazo[4,5-b]pyridin-6-yl)acetamide] | 57 | 862
6 | CC(C(=O)N(C)c1cnc2[nH]c(-c3n[nH]c4c3C[C@@H]3C[C@]3(C)C4)nc2c1)N1CCCCC1 (stereo partly drawn) [Example 120, N-Methyl-N-(2-((4aS,5aR)-5a-methyl-1,4,4a,5,5a,6-hexahydrocyclopropa[f]indazol-3-yl)-3H-imidazo[4,5-b]pyridin-6-yl)-2] | 788 | 2340
7 | CN(C(=O)C12CC(C1)C2)c1cnc2nc(-c3n[nH]c4c3C[C@@H]3C[C@]3(C)C4)[nH]c2c1 [Example 85, N-Methyl-N-(2-((4aS,5aR)-5a-methyl-1,4,4a,5,5a,6-hexahydrocyclopropa[f]indazol-3-yl)-1H-imidazo[4,5-b]pyridin-6-yl)bicyclo[1.1.1]pentane-1-carboxamide] | 91 | 1220
8 | CC(C)(C(=O)Nc1cnc2[nH]c(-c3n[nH]c4c3C[C@@H]3C[C@]3(C)C4)nc2c1)N1CCOCC1 [Example 16, 2-Methyl-N-(2-((4aS,5aR)-5a-methyl-1,4,4a,5,5a,6-hexahydrocyclopropa[f]indazol-3-yl)-3H-imidazo[4,5-b]pyridin-6-yl)-2-morpholinopropanamide] | – | 2110
9 | CN(C(=O)C(C)(C)C1CCOCC1)c1cnc2[nH]c(-c3n[nH]c4c3CCC(C)(C)C4)nc2c1 [Example 93, N-(2-(6,6-Dimethyl-4,5,6,7-tetrahydro-1H-indazol-3-yl)-3H-imidazo[4,5-b]pyridin-6-yl)-N,2-dimethyl-2-(tetrahydro-2H-pyran-4-yl)propanamide] | 333 | –
10 | CCc1nc2[nH]c(-c3n[nH]c4c3C[C@@H]3C[C@]3(C)C4)nc2cc1N(C)C(=O)CN1CCOCC1 [Example 37, N-(5-Ethyl-2-((4aS,5aR)-5a-methyl-1,4,4a,5,5a,6-hexahydrocyclopropa[f]indazol-3-yl)-3H-imidazo[4,5-b]pyridin-6-yl)-N-methyl-2-morpholinoacetamide] | – | 815
11 | CN(C(=O)C1CC(C)(C)C1)c1cnc2[nH]c(-c3n[nH]c4c3CCC(C)(C)C4)nc2c1 [Example 96, N-(2-(6,6-Dimethyl-4,5,6,7-tetrahydro-1H-indazol-3-yl)-3H-imidazo[4,5-b]pyridin-6-yl)-N,3,3-trimethylcyclobutane-1-carboxamide] | 311 | –
12 | CC(C(=O)N(C)c1cnc2[nH]c(-c3n[nH]c4c3C[C@@H]3C[C@]3(C)C4)nc2c1)N1CCOCC1 (stereo partly drawn) [Example 27, N-Methyl-N-(2-((4aS,5aR)-5a-methyl-1,4,4a,5,5a,6-hexahydrocyclopropa[f]indazol-3-yl)-3H-imidazo[4,5-b]pyridin-6-yl)-2-morpholinopropanamide] | 62 | –

More lines, in order of falling IC50 [2], values ahead:

Row | IC50 [1] [nM] | IC50 [2] [nM] | Compound
13 | – | 326 | CN(C(=O)CC1CC(F)(F)C1)c1cnc2nc(-c3n[nH]c4c3C[C@@H]3C[C@]3(C)C4)[nH]c2c1 [Example 48, 2-(3,3-Difluorocyclobutyl)-N-methyl-N-(2-((4aS,5aR)-5a-methyl-1,4,4a,5,5a,6-hexahydrocyclopropa[f]indazol-3-yl)-1H-imidazo[4,5-b]pyridin-6-yl)acetamide]
14 | 38 | 320 | CC(C)[C@@H](C(=O)N(C)c1cnc2[nH]c(-c3n[nH]c4c3CC3C[C@]3(C)C4)nc2c1)N1CCOCC1 (stereo in doubt) [Example 3, (S)-N,3-Dimethyl-N-(2-((4aR,5aR)-5a-methyl-1,4,4a,5,5a,6-hexahydrocyclopropa[f]indazol-3-yl)-3H-imidazo[4,5-b]pyridin-6-yl)-2-morpholinobutanamide]
15 | – | 315 | C[C@@H](C(=O)Nc1ccc2[nH]c(-c3n[nH]c4c3CCC(C)(C)C4)nc2c1)N1CCOCC1 [Example 33, (S)-N-(2-(6,6-Dimethyl-4,5,6,7-tetrahydro-1H-indazol-3-yl)-1H-benzo[d]imidazol-5-yl)-2-morpholinopropanamide]
16 | – | 171 | CN(C(=O)CC1CC2(C1)CC2(F)F)c1cnc2nc(-c3n[nH]c4c3C[C@@H]3C[C@]3(C)C4)[nH]c2c1 (stereo partly drawn) [Example 50, 2-(1,1-Difluorospiro[2.3]hexan-5-yl)-N-methyl-N-(2-((4aS,5aR)-5a-methyl-1,4,4a,5,5a,6-hexahydrocyclopropa[f]indazol-3-yl)-1H-imidazo[4,5-b]pyridin-6-yl)acetamide]
17 | – | 157 | CN(C(=O)CC1CC2(CCC2)C1)c1cnc2nc(-c3n[nH]c4c3C[C@@H]3C[C@]3(C)C4)[nH]c2c1 [Example 49, N-Methyl-N-(2-((4aS,5aR)-5a-methyl-1,4,4a,5,5a,6-hexahydrocyclopropa[f]indazol-3-yl)-1H-imidazo[4,5-b]pyridin-6-yl)-2-(spiro[3.3]heptan-2-yl)acetamide]
18 | – | 131 | CN(C(=O)CC1CC2(C1)CC(F)(F)C2)c1cnc2nc(-c3n[nH]c4c3C[C@@H]3C[C@]3(C)C4)[nH]c2c1 [Example 54, 2-(6,6-Difluorospiro[3.3]heptan-2-yl)-N-methyl-N-(2-((4aS,5aR)-5a-methyl-1,4,4a,5,5a,6-hexahydrocyclopropa[f]indazol-3-yl)-1H-imidazo[4,5-b]pyridin-6-yl)acetamide]
